Data: patent publication US8961937B2 (Korea Atomic Energy Research Institute, priority 2012, dated 2015)
“Also recorded” adds a separate entry of the source.

Tests used:
Aβ40 aggregates [1] = target: T1, Aβ40 aggregates (Homo sapiens, UniProt P05067); assay: In vitro fluorescence measurement before and after mixing with agglomerated Aβ40 peptide; assay type: binding; settings: for λem: emission wavelength; for λem / λex: 10 μM in PBS; for λex: excitation wavelength; for Fold Increase (FAβ/F0): fluorescence emission intensity at λem, 10 μM compound and 10 μM Aβ40 aggregates
T1 construct: agglomerated Aβ40 peptide (10 μM, 35° C., agglomerated in PBS buffer for 3 days.)
T1 sequence (P05067 672-711 limits assumed): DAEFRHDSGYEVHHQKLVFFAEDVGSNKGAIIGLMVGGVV

Aβ40 aggregates [2] = target: T1, Aβ40 aggregates; assay: Apparent binding constant (Kd) by fluorescence titration with aggregated Aβ40 peptide; settings: 10 μM aggregated Aβ40 peptide, PBS, N = 3; read-out: Kd (mean ± SD)
Description: Apparent binding constants (Kd) of the nine compounds were measured by using 10 μM aggregated Aβ40 peptide. Fluorescence intensity of respective probes of […], 0.5, 1, […], 5, and 10 μM dissolved in PBS and fluorescence intensity of a mixture with aggregates Aβ peptide were measured. […] Theoretically, a preferable fluorescence probe for Aβ aggregates should have high fluorescence reactivity and binding affinity.

[3] = target: T2, intracellular Aβ aggregates of a SHSY5Y neuroblastoma cell (Homo sapiens, UniProt P05067); assay: Fluorescence imaging of intracellular Aβ aggregates in SHSY5Y cell extract; assay type: cell-based; settings: for fluorescent staining of extract of Aβ42-added SHSY5Y cells: cell cultured with unlabelled Aβ42, sonicated with SDS, homogenate reacted with 10 μM probe for 10 minutes; for fluorescent staining of extract of SHSY5Y cells grown without Aβ: culture without Aβ42 (negative control tissue)
T2 construct: a cell having unlabelled Aβ42 added thereto was sonicated with SDS; host or cells: exogenous peptide added to the SHSY5Y neuroblastoma cell culture
T2 sequence (P05067 672-713 limits assumed): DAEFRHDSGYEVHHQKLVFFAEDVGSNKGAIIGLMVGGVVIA
Description: Fluorescence imaging of compound 14 was performed on intracellular Aβ aggregates of a SHSY5Y neuroblastoma cell. In order to measure intracellular uptake and aggregation of Aβ, 1 μM of Aβ42 (FITC-Aβ42) labelled with fluorescein isothiocyanate was added, and SHSY5Y cell was cultivated 3 days and imaged with fluorescence microscope. […] The conventional research reported that, after extracellular soluble Aβ is taken up, Aβ42 aggregates (>200 kDa) having a high molecular weight is formed. In order to determine whether the compound 14 is used as a fluorescence probe component for detecting intracellular Aβ aggregates, a cell having unlabelled Aβ42 added thereto was sonicated with SDS, and the homogenate was reacted with 10 μM of compound 14 for 10 minutes.

[4] = system: Aβ aggregates of brain tissues of an AD mouse; assay: Fluorescence staining of brain sections of transgenic AD mouse (APP/PS1); settings: for staining of Aβ aggregates in brain section of transgenic AD mouse: 15-month aged APP/PS1 mouse brain section; for staining of brain tissue of control group mouse: control group mouse brain section
Description: In order to evaluate whether 2-styrylpyridazine-3(2H)-one-based compound 14 can stain beta amyloid aggregates of brain tissues of an AD mouse, compound 14 was tested in a brain section of an 15-month aged transgenic AD mouse (APP/PS 1) model.

| SMILES | λem (Aβ40 aggregates [1]) | λex (Aβ40 aggregates [1]) | Fold Increase (FAβ/F0) (Aβ40 aggregates [1]) | Kd (Aβ40 aggregates [2]) | fluorescent staining of extract of Aβ42-added SHSY5Y cells [3] | fluorescent staining of extract of SHSY5Y cells grown without Aβ [3] | staining of Aβ aggregates in brain section of transgenic AD mouse [4] | staining of brain tissue of control group mouse [4] |
| --- | --- | --- | --- | --- | --- | --- | --- | --- |
| O=c1c(Cl)c(Cl)cnn1/C=C/c1cccc([N+](=O)[O-])c1 [Compound 9, (E)-4,5-dichloro-2-(3-nitrostyryl)pyridazine-3(2H)-one] | 485 nm | 390 nm | 2.12 | – | – | – | – | – |
| COc1cc(OC)c(/C=C/n2ncc(Cl)c(Cl)c2=O)c(OC)c1 [Compound 27, (E)-4,5-dichloro-2-(2,4,6-trimethoxystyryl)pyridazine-3(2H)-one] | 560 nm | 430 nm | 11.72 | 17.5 ± 2.49 µM | – | – | – | – |
| COc1ccccc1/C=C/n1ncc(Cl)c(Cl)c1=O [Compound 16, (E)-4,5-dichloro-2-(2-methoxystyryl)pyridazine-3(2H)-one] | 492 nm | 380 nm | 8.24 | – | – | – | – | – |
| COc1ccc(/C=C/n2ncc(Cl)c(Cl)c2=O)cc1 [Compound 18, (E)-4,5-dichloro-2-(4-methoxystyryl)pyridazine-3(2H)-one] | 532 nm | 400 nm | 19.81 | 2.57 ± 0.54 µM | – | – | – | – |
| O=c1c(Cl)c(Cl)cnn1/C=C/c1ccc(-c2ccccc2)cc1 [Compound 12, (E)-2-(2-(biphenyl-4-yl)vinyl)-4,5-dichloropyridazine-3(2H)-one] | 514 nm | 380 nm | 1.92 | – | – | – | – | – |
| O=c1c(Cl)c(Cl)cnn1/C=C/c1ccc(F)cc1 [Compound 2, (E)-4,5-dichloro-2-(4-fluorostyryl)pyridazine-3(2H)-one] | 492 nm | 350 nm | 5.93 | – | – | – | – | – |
| Nc1ccc(/C=C/n2ncc(Cl)c(Cl)c2=O)cc1 [Compound 15, (E)-4,5-dichloro-2-(4-aminostyryl)pyridazine-3(2H)-one] | 598 nm | 400 nm | 12.15 | 2.95 ± 1.15 µM | – | – | – | – |
| Cc1ccc(/C=C/n2ncc(Cl)c(Cl)c2=O)cc1 [Compound 11, (E)-4,5-dichloro-2-(4-methylstyryl)pyridazine-3(2H)-one] | 516 nm | 350 nm | 2.81 | – | – | – | – | – |
| O=c1c(Cl)c(Cl)cnn1/C=C/c1ccc(Br)cc1 [Compound 4, (E)-2-(4-bromostyryl)-4,5-dichloropyridazine-3(2H)-one] | 495 nm | 370 nm | 2.12 | – | – | – | – | – |
| COc1cccc(/C=C/n2ncc(Cl)c(Cl)c2=O)c1OC [Compound 19, (E)-4,5-dichloro-2-(2,3-dimethoxystyryl)pyridazine-3(2H)-one] | 504 nm | 350 nm | 15.35 | 8.52 ± 2.48 µM | – | – | – | – |
| O=c1c(Cl)c(Cl)cnn1/C=C/c1ccc([N+](=O)[O-])cc1 [Compound 10, (E)-4,5-dichloro-2-(4-nitrostyryl)pyridazine-3(2H)-one] | 515 nm | 390 nm | 2.24 | – | – | – | – | – |
| O=c1c(Cl)c(Cl)cnn1/C=C/c1ccc(/C=C/c2ccccc2)cc1 [Compound 13, 4,5-dichloro-2-((E)-4-(E)-styrylstyryl)pyridazine-3(2H)-one] | 510 nm | 380 nm | 2.04 | – | – | – | – | – |
| COc1ccc(/C=C/n2ncc(Cl)c(Cl)c2=O)c(OC)c1OC [Compound 25, (E)-4,5-dichloro-2-(2,3,4-trimethoxystyryl)pyridazine-3(2H)-one] | 536 nm | 390 nm | 26.81 | 4.24 ± 0.98 µM | – | – | – | – |
| O=c1c(Cl)c(Cl)cnn1/C=C/c1ccccc1 [Compound 1, trans-4,5-dichloro-2-styrylpyridazine-3(2H)-one] | 496 nm | 350 nm | 4.72 | – | – | – | – | – |
| Cc1ccc2c(c1)sc(-c1ccc(N(C)C)cc1)[n+]2C.[Cl-] [thio-flavine T, reference compound] | – | – | – | – | labelled pattern was identical to a pattern observed by using thio-flavine T | did not have fluorescent staining | stained | not stained |
| O=c1c(Cl)c(Cl)cnn1/C=C/c1ccc(I)cc1 [Compound 5, (E)-4,5-dichloro-2-(4-Iodostyryl)pyridazine-3(2H)-one] | 498 nm | 380 nm | 5.26 | – | – | – | – | – |
| COc1cc(/C=C/n2ncc(Cl)c(Cl)c2=O)cc(OC)c1OC [Compound 28] | 580 nm | 390 nm | 26.12 | 4.14 ± 1.94 µM | – | – | – | – |
| COc1cc(/C=C/n2ncc(Cl)c(Cl)c2=O)cc(OC)c1 [Compound 24, (E)-4,5-dichloro-2-(3,5-dimethoxystyryl)pyridazine-3(2H)-one] | 492 nm | 350 nm | 5.37 | – | – | – | – | – |
| COc1ccc(/C=C/n2ncc(Cl)c(Cl)c2=O)c(OC)c1 [Compound 20, (E)-4,5-dichloro-2-(2,4-dimethoxystyryl)pyridazine-3(2H)-one] | 554 nm | 400 nm | 11.52 | 5.03 ± 3.48 µM | – | – | – | – |
| COc1ccc(OC)c(/C=C/n2ncc(Cl)c(Cl)c2=O)c1 [Compound 21, (E)-4,5-dichloro-2-(2,5-dimethoxystyryl)pyridazine-3(2H)-one] | 512 nm | 370 nm | 3.42 | – | – | – | – | – |
| COc1ccc(/C=C/n2ncc(Cl)c(Cl)c2=O)cc1OC [Compound 23, (E)-4,5-dichloro-2-(3,4-dimethoxystyryl)pyridazine-3(2H)-one] | 552 nm | 350 nm | 3.52 | – | – | – | – | – |
| COc1cccc(/C=C/n2ncc(Cl)c(Cl)c2=O)c1 [Compound 17, (E)-4,5-dichloro-2-(3-methoxystyryl)pyridazine-3(2H)-one] | 492 nm | 350 nm | 11.13 | 3.48 ± 1.14 µM | – | – | – | – |
| O=c1c(Cl)c(Cl)cnn1/C=C/c1ccc(Cl)cc1 [Compound 3, (E)-4,5-dichloro-2-(4-chlorostyryl)pyridazine-3(2H)-one] | 495 nm | 380 nm | 3.03 | – | – | – | – | – |
| N#Cc1ccc(/C=C/n2ncc(Cl)c(Cl)c2=O)cc1 [Compound 6, (E)-2-(4-cyanostyryl)-4,5-dichloropyridazine-3(2H)-one] | 486 nm | 380 nm | 2.94 | – | – | – | – | – |
| CN(C)c1ccc(/C=C/n2ncc(Cl)c(Cl)c2=O)cc1 [Compound 14] | 636 nm | 430 nm | 40.84 | 1.84 µM | Fluorescence precipitate was obtained; also recorded: clearly stained | did not have fluorescent staining | clearly stained | not stained |
| COc1cccc(OC)c1/C=C/n1ncc(Cl)c(Cl)c1=O [Compound 22, (E)-4,5-dichloro-2-(2,6-dimethoxystyryl)pyridazine-3(2H)-one] | 545 nm | 350 nm | 4.53 | – | – | – | – | – |
| O=c1c(Cl)c(Cl)cnn1/C=C/c1ccccc1[N+](=O)[O-] [Compound 8, (E)-4,5-dichloro-2-(2-nitrostyryl)pyridazine-3(2H)-one] | 500 nm | 370 nm | 4.12 | – | – | – | – | – |
| COC(=O)c1ccc(/C=C/n2ncc(Cl)c(Cl)c2=O)cc1 [Compound 7, (E)-4,5-dichloro-2-(4-methoxycarbonylstyryl)pyridazine-3(2H)-one] | 488 nm | 370 nm | 2.07 | – | – | – | – | – |
| COc1cc(OC)c(OC)cc1/C=C/n1ncc(Cl)c(Cl)c1=O [Compound 26, (E)-4,5-dichloro-2-(2,4,5-trimethoxystyryl)pyridazine-3(2H)-one] | 542 nm | 350 nm | 3.95 | – | – | – | – | – |
